Counter-ions that a name gives are not always drawn. Like-named read-outs stand apart in the source and are kept apart here.
Tests used:
Assay in all cases: AK assay 384-well format, Prestwick library screening
E. faecium = assay type: cell-based, Enterococcus faecium; conditions: 50 μM final drug concentration; for fold induction at 50 µM: Enterococcus faecium, 3 h
[1] = system: S. aureus strain USA300-0114; assay type: cell-based, Staphylococcus aureus; conditions: 50 μM final drug concentration; for fold induction at 50 µM: Staphylococcus aureus, USA300, 3 h
K. pneumoniae = assay type: cell-based, Klebsiella pneumoniae; conditions: 50 μM final drug concentration; for fold induction at 50 µM: Klebsiella pneumoniae, 3 h
[2] = system: A. baumannii strain 98-37-09; assay type: cell-based, Acinetobacter baumannii; conditions: 50 μM final drug concentration; for fold induction at 50 µM: Acinetobacter baumannii, 983709, 3 h
P. aeruginosa = assay type: cell-based, Pseudomonas aeruginosa; conditions: 50 μM final drug concentration; for fold induction at 50 µM: Pseudomonas aeruginosa, 3 h
E. cloacae = assay type: cell-based, Enterobacter cloacae; conditions: 50 μM final drug concentration; for fold induction at 50 µM: Enterobacter cloacae, 3 h
E. coli = assay type: cell-based, Escherichia coli; conditions: 50 μM final drug concentration; for fold induction at 50 µM: Escherichia coli, 3 h
[3] = planktonic E. faecium, 384-well, cutoff for positive-scoring molecules 3-fold increase, read-out: AK-based Prestwick Library Screening Results: E. faecium (increase in extracellular AK activity)
[4] = planktonic S. aureus, 384-well, cutoff for positive-scoring molecules 3-fold increase, read-out: AK-based Prestwick Library Screening Results: S. aureus (increase in extracellular AK activity)
[5] = planktonic K. pneumoniae, 384-well, cutoff for positive-scoring molecules 3-fold increase, read-out: AK-based Prestwick Library Screening Results: K. pneumoniae (increase in extracellular AK activity)
[6] = planktonic A. baumannii, 384-well, cutoff for positive-scoring molecules 3-fold increase, read-out: AK-based Prestwick Library Screening Results: A. baumannii (increase in extracellular AK activity)
[7] = planktonic P. aeruginosa, 384-well, cutoff for positive-scoring molecules 3-fold increase, read-out: AK-based Prestwick Library Screening Results: P. aeruginosa (increase in extracellular AK activity)
[8] = planktonic E. cloacae, 384-well, cutoff for positive-scoring molecules 3-fold increase, read-out: AK-based Prestwick Library Screening Results: E. cloacae (increase in extracellular AK activity)
[9] = planktonic E. coli, 384-well, cutoff for positive-scoring molecules 3-fold increase, read-out: AK-based Prestwick Library Screening Results: E. coli (increase in extracellular AK activity)

Cc1ccc(C)c(OCCCC(C)(C)C(=O)O)c1 [Gemfibrozil]
fold induction at 50 µM (E. faecium; [3]): 1 | fold induction at 50 µM [1, 4]: 0.9 | fold induction at 50 µM (K. pneumoniae; [5]): 0.9 | fold induction at 50 µM [2, 6]: 1.3 | fold induction at 50 µM (P. aeruginosa; [7]): 1.2 | fold induction at 50 µM (E. cloacae; [8]): 1.5 | fold induction at 50 µM (E. coli; [9]): 1.3

C=C1C[C@]23C[C@@]1(O)CC[C@H]2[C@@]12C=C[C@H](O)[C@@](C)(C(=O)O1)[C@H]2[C@@H]3C(=O)O [Gibberellic acid]
fold induction at 50 µM (E. faecium; cutoff for positive-scoring molecules 3-fold increase, read-out: AK-based Prestwick Library Screening Results, E. faecium (fold increase in extracellular AK activity)): 0.8 | fold induction at 50 µM ([1]; cutoff for positive-scoring molecules 3-fold increase, read-out: AK-based Prestwick Library Screening Results, S. aureus (fold increase in extracellular AK activity)): 0.4 | fold induction at 50 µM (K. pneumoniae; cutoff for positive-scoring molecules 3-fold increase, read-out: AK-based Prestwick Library Screening Results, K. pneumoniae (fold increase in extracellular AK activity)): 0.5 | fold induction at 50 µM ([2]; cutoff for positive-scoring molecules 3-fold increase, read-out: AK-based Prestwick Library Screening Results, A. baumannii (fold increase in extracellular AK activity)): 0.4 | fold induction at 50 µM (P. aeruginosa; cutoff for positive-scoring molecules 3-fold increase, read-out: AK-based Prestwick Library Screening Results, P. aeruginosa (fold increase in extracellular AK activity)): 0.4 | fold induction at 50 µM (E. cloacae; cutoff for positive-scoring molecules 3-fold increase, read-out: AK-based Prestwick Library Screening Results, E. cloacae (fold increase in extracellular AK activity)): 0.4 | fold induction at 50 µM (E. coli; cutoff for positive-scoring molecules 3-fold increase, read-out: AK-based Prestwick Library Screening Results, E. coli (fold increase in extracellular AK activity)): 0.5

C[C@@H]1C(=O)O[C@H]2C[C@@]34[C@H]5C[C@@H](C(C)(C)C)[C@]36[C@@H](OC(=O)[C@@H]6O)O[C@@]4(C(=O)O5)[C@]21O [Ginkgolide A]
AK-based Prestwick Library Screening Results, E. faecium (increase in extracellular AK activity) (E. faecium; planktonic E. faecium, […]): 1.0 | AK-based Prestwick Library Screening Results, S. aureus (increase in extracellular AK activity) ([1]; planktonic S. aureus, […]): 1.1 | AK-based Prestwick Library Screening Results, K. pneumoniae (increase in extracellular AK activity) (K. pneumoniae; planktonic K. pneumoniae, […]): 1.0 | AK-based Prestwick Library Screening Results, A. baumannii (increase in extracellular AK activity) ([2]; planktonic A. baumannii, […]): 1.0 | AK-based Prestwick Library Screening Results, P. aeruginosa (increase in extracellular AK activity) (P. aeruginosa; planktonic P. aeruginosa, […]): 1.1 | AK-based Prestwick Library Screening Results, E. cloacae (increase in extracellular AK activity) (E. cloacae; planktonic E. cloacae, […]): 1.2 | AK-based Prestwick Library Screening Results, E. coli (increase in extracellular AK activity) (E. coli; planktonic E. coli, […]): 1.3

O=C(OCC(O)CO)c1ccccc1Nc1ccnc2cc(Cl)ccc12 (stereo not drawn) [Glafenine hydrochloride]
fold induction at 50 µM (E. faecium; planktonic E. faecium, 384-well, […], read-out: AK-based Prestwick Library Screening Results: E. faecium (increase in extracellular AK activity)): 1.1 | fold induction at 50 µM ([1]; planktonic S. aureus, 384-well, […], read-out: AK-based Prestwick Library Screening Results: S. aureus (increase in extracellular AK activity)): 1.1 | fold induction at 50 µM (K. pneumoniae; planktonic K. pneumoniae, 384-well, […], read-out: AK-based Prestwick Library Screening Results: K. pneumoniae (increase in extracellular AK activity)): 1 | fold induction at 50 µM ([2]; planktonic A. baumannii, 384-well, […], read-out: AK-based Prestwick Library Screening Results: A. baumannii (increase in extracellular AK activity)): 1.1 | fold induction at 50 µM (P. aeruginosa; planktonic P. aeruginosa, 384-well, […], read-out: AK-based Prestwick Library Screening Results: P. aeruginosa (increase in extracellular AK activity)): 1.2 | fold induction at 50 µM (E. cloacae; planktonic E. cloacae, 384-well, […], read-out: AK-based Prestwick Library Screening Results: E. cloacae (increase in extracellular AK activity)): 1.5 | fold induction at 50 µM (E. coli; planktonic E. coli, 384-well, […], read-out: AK-based Prestwick Library Screening Results: E. coli (increase in extracellular AK activity)): 1.2

COc1ccc(Cl)cc1C(=O)NCCc1ccc(S(=O)(=O)NC(=O)NC2CCCCC2)cc1 [Glibenclamide]
fold induction at 50 µM (E. faecium; [3]): 1 | fold induction at 50 µM [1, 4]: 0.9 | fold induction at 50 µM (K. pneumoniae; [5]): 1.1 | fold induction at 50 µM [2, 6]: 1.3 | fold induction at 50 µM (P. aeruginosa; [7]): 1.2 | fold induction at 50 µM (E. cloacae; [8]): 1.4 | fold induction at 50 µM (E. coli; [9]): 1.2

Cc1ccc(S(=O)(=O)NC(=O)NN2CC3CCCC3C2)cc1 (stereo not drawn) [Gliclazide]
fold induction at 50 µM (E. faecium; planktonic, cutoff for positive 3-fold increase, read-out: AK-based Prestwick Library Screening Results, E. faecium (fold increase in extracellular AK activity)): 1 | fold induction at 50 µM ([1]; planktonic, cutoff for positive 3-fold increase, read-out: AK-based Prestwick Library Screening Results, S. aureus (fold increase in extracellular AK activity)): 1 | fold induction at 50 µM (K. pneumoniae; planktonic, cutoff for positive 3-fold increase, read-out: AK-based Prestwick Library Screening Results, K. pneumoniae (fold increase in extracellular AK activity)): 1.2 | fold induction at 50 µM ([2]; planktonic, cutoff for positive 3-fold increase, read-out: AK-based Prestwick Library Screening Results, A. baumannii (fold increase in extracellular AK activity)): 1.3 | fold induction at 50 µM (P. aeruginosa; planktonic, cutoff for positive 3-fold increase, read-out: AK-based Prestwick Library Screening Results, P. aeruginosa (fold increase in extracellular AK activity)): 1.2 | fold induction at 50 µM (E. cloacae; planktonic, cutoff for positive 3-fold increase, read-out: AK-based Prestwick Library Screening Results, E. cloacae (fold increase in extracellular AK activity)): 1.8 | fold induction at 50 µM (E. coli; planktonic, cutoff for positive 3-fold increase, read-out: AK-based Prestwick Library Screening Results, E. coli (fold increase in extracellular AK activity)): 1.2

CCC1=C(C)CN(C(=O)NCCc2ccc(S(=O)(=O)NC(=O)N[C@H]3CC[C@H](C)CC3)cc2)C1=O [Glimepiride]
fold induction at 50 µM (E. faecium; planktonic, cutoff for positive-scoring molecules 3-fold increase, read-out: AK-based Prestwick Library Screening Results, E. faecium (fold increase in extracellular AK activity)): 1.4 | fold induction at 50 µM ([1]; planktonic, cutoff for positive-scoring molecules 3-fold increase, read-out: AK-based Prestwick Library Screening Results, S. aureus (fold increase in extracellular AK activity)): 0.5 | fold induction at 50 µM (K. pneumoniae; planktonic, cutoff for positive-scoring molecules 3-fold increase, read-out: AK-based Prestwick Library Screening Results, K. pneumoniae (fold increase in extracellular AK activity)): 0.7 | fold induction at 50 µM ([2]; planktonic, cutoff for positive-scoring molecules 3-fold increase, read-out: AK-based Prestwick Library Screening Results, A. baumannii (fold increase in extracellular AK activity)): 0.7 | fold induction at 50 µM (P. aeruginosa; planktonic, cutoff for positive-scoring molecules 3-fold increase, read-out: AK-based Prestwick Library Screening Results, P. aeruginosa (fold increase in extracellular AK activity)): 0.7 | fold induction at 50 µM (E. cloacae; planktonic, cutoff for positive-scoring molecules 3-fold increase, read-out: AK-based Prestwick Library Screening Results, E. cloacae (fold increase in extracellular AK activity)): 0.9 | fold induction at 50 µM (E. coli; planktonic, cutoff for positive-scoring molecules 3-fold increase, read-out: AK-based Prestwick Library Screening Results, E. coli (fold increase in extracellular AK activity)): 0.5

Cc1cnc(C(=O)NCCc2ccc(S(=O)(=O)NC(=O)NC3CCCCC3)cc2)cn1 [Glipizide]
fold induction at 50 µM (E. faecium; [3]): 0.9 | fold induction at 50 µM [1, 4]: 1.2 | fold induction at 50 µM (K. pneumoniae; [5]): 0.8 | fold induction at 50 µM [2, 6]: 1 | fold induction at 50 µM (P. aeruginosa; [7]): 1 | fold induction at 50 µM (E. cloacae; [8]): 1.3 | fold induction at 50 µM (E. coli; [9]): 1.2

COc1ccc2c(c1)C(=O)N(CCc1ccc(S(=O)(=O)NC(=O)NC3CCCCC3)cc1)C(=O)C2(C)C [Gliquidone]
fold induction at 50 µM (E. faecium; planktonic E. faecium, positive cutoff 3-fold increase, read-out: AK-based Prestwick library screening result, E. faecium (fold increase in extracellular AK activity)): 0.9 | fold induction at 50 µM ([1]; planktonic S. aureus, positive cutoff 3-fold increase, read-out: AK-based Prestwick library screening result, S. aureus (fold increase in extracellular AK activity)): 0.5 | fold induction at 50 µM (K. pneumoniae; planktonic K. pneumoniae, positive cutoff 3-fold increase, read-out: AK-based Prestwick library screening result, K. pneumoniae (fold increase in extracellular AK activity)): 0.7 | fold induction at 50 µM ([2]; planktonic A. baumannii, positive cutoff 3-fold increase, read-out: AK-based Prestwick library screening result, A. baumannii (fold increase in extracellular AK activity)): 0.7 | fold induction at 50 µM (P. aeruginosa; planktonic P. aeruginosa, positive cutoff 3-fold increase, read-out: AK-based Prestwick library screening result, P. aeruginosa (fold increase in extracellular AK activity)): 0.8 | fold induction at 50 µM (E. cloacae; planktonic E. cloacae, positive cutoff 3-fold increase, read-out: AK-based Prestwick library screening result, E. cloacae (fold increase in extracellular AK activity)): 1.1 | fold induction at 50 µM (E. coli; planktonic E. coli, positive cutoff 3-fold increase, read-out: AK-based Prestwick library screening result, E. coli (fold increase in extracellular AK activity)): 0.8

From US10004701B2, “Methods and compositions for treating infection” (UNIVERSITY OF ROCHESTER, priority 2012, dated 2018)
